Values joined by “and” are separate entries in the source; they are usually repeats but may differ in a detail not shown here. Identical values can stand only once. Like-named read-outs stand apart in the source and are kept apart here. Each block holds one compound with its values, some of them ahead of it.
Key:
[1] = tested on: HepG2 cells; test: HepG2 viability (resazurin); conditions: human, 10 µM
Description: Safety studies were performed by commercial services using their standard protocols. […] Genotoxicity was investigated using the Ames test (Bacterial Reverse Mutation Assay) (Covance Laboratories Ltd, North Yorkshire, England). In vitro mammalian cell micronucleus screening assay was studied in human peripheral blood lymphocytes (BioReliance Corporation, Rockville, USA). Cardiotoxicity was determined against the hERG channel in an automated patch clamp assay using the Qpatch or against the hNaV 1.5, hKV 1.5 and hCaV 1.2 using a manual patch-clamp technique (Metrion Biosciences, Cambridge, UK). Cytotoxicity in human and rat primary hepatocytes was assessed using the CellTiter-Blue assay performed by commercial services (KaLy-Cell). The viability of HepG2 cells was monitored through the addition of 1 mM resazurin. Following 6 h incubation, the relative amount of reduced resazurin was detected in a fluorimeter and compared to the assay controls (vehicle: 0.1% DMSO and positive control: 10 µM puromycin).

[2] = in vitro; conditions: human
Description: (§1) Briefly, cryopreserved human primary hepatocytes were thawed and cultured as described above.

[3] = tested on: P. falciparum 3D7; test: Parasite reduction rate (PRR) in vitro killing rate assay; assay type: cell-based, Plasmodium falciparum
Description: The antimalarial killing rate was determined by GlaxoSmithKline (GSK, Tres Cantos, Madrid, Spain) as described previously. […] The number of viable parasites was determined on day 21 and 28 by counting the wells with parasite growth.

[4] = dog, plasma
[5] = mouse, plasma
[6] = rat, plasma
[7] = human, plasma
[8] = tested on: human G6PD-A-deficient RBCs; test: Hemolytic toxicity in NSG mice engrafted with G6PD-deficient human RBCs; conditions: Primaquine group
Description: Hemolytic toxicity was determined in female NSG mice (Jackson Laboratories) using erythrocytes from a G6PD-A-deficient blood donor (0.4 u/g hemoglobin).

[9] = tested on: cryopreserved human primary hepatocytes; test: Human hepatocyte clearance (relay assay); conditions: 10 µM, single replicates
Description: as §1

[10] = in vitro; conditions: human; remark: listed apart in the source
[11] = tested on: AcAS (PF3D7_0627800); test: Cellular thermal shift assay on parasite lysate; assay type: binding, Plasmodium falciparum; conditions: 1 µM
Description: A cellular thermal shift assay (CETSA) was performed on infected RBCs or parasite lysates as described previously.
For a CETSA on parasite lysates, synchronized trophozoite cultures (ACS11-tagged parasites) were treated with 0.1% saponin to lyse the RBCs, and washed three times in PBS. Subsequently, parasite pellets were resuspended in 1× lysis buffer and subjected to three flash-freeze-thaw cycles using liquid nitrogen, followed by mechanical shearing using a syringe with a 25 G and a 30 G needle. Samples were spun down at 18,000 g for 20 min at 4 °C. The supernatant was diluted to 2.1 mg/ml protein concentration, and 100 µl was added to each PCR tube containing 1 µl of the compound at a 100× concentration (final concentration of 1 µM). Samples were incubated for 30 min at room temperature, subjected to a thermal gradient for 3 min on a pre-heated PCR machine, followed by 4 °C for 3 min. Samples were spun down at 18,000 g for 20 min at 4 °C and the soluble fraction was flash-frozen in liquid nitrogen and stored at −80 °C.
Samples were loaded on an 8% SDS-Page gel (Genscript) with 4×10^6 infected RBCs or 50 µg protein for the parasite lysate approach. Proteins were transferred to a nitrocellulose membrane that was blocked with 5% skim milk (Sigma) in PBS overnight and incubated with rabbit antiserum against AcAS (1:1000) for 1 h. Subsequently, membranes were washed three times with PBS-Tween for 5 min, followed by incubation with secondary horseradish peroxide (HRP)-conjugated goat anti-rabbit antibodies (Dako P0448, 1:1000) for 1 h. Blots were then washed three times with PBS-Tween for 5 min and twice with PBS. Following a 5-min incubation with Clarity Max Western ECL Substrate (BioRad), protein blots were imaged using the ImageQuant LAS4000 (GE Healthcare). The band intensity was quantified using Fiji software.

[12] = tested on: P. falciparum NF54 rings and schizonts; test: Stage-specific activity on synchronized ring and schizont cultures; assay type: cell-based, Plasmodium falciparum
Description: Asynchronous NF54 parasites were cultured in a semi-automated shaker system[63] and synchronized once with 5% D-sorbitol. […] This yielded a parasite culture with ≥ 90% rings. To assess the schizont-stage activity of MMV693186, the initial synchronized culture was treated again with sorbitol 7 h later. Subsequently, parasites were cultured for another 17 h to yield a parasite culture of ≥ 90% early schizont stages. The ring and schizont synchronized cultures were diluted to 0.5% and then incubated with either 50 nM DHA or 50 nM MM693183 for 24 h in duplicate. Subsequently, the drug was washed out and parasites were cultured for another 24 h. Parasitemia was determined using Giemsa-stained thin smears at 0 h, 24 h, and 48 h after drug exposure.

[13] = Solubility in PBS, FaSSIF, FeSSIF; assay type: physicochemical; conditions: unknown samples, relative dilution factor 10000, duplicates
[14] = tested on: P. falciparum Pf3D7^0087/N9; test: Single dose in vivo efficacy in humanized NSG mice; set-up: species or system Plasmodium falciparum
Description: The effect of pantothenamides on P. falciparum Pf3D7^0087/N9 [66] in vivo was assessed in female NSG mice (NODscidIL2Rγ^null) at the Swiss Tropical and Public Health Institute (Basel, Switzerland) as described previously (Supplementary Table 30)[15],[67]. Briefly, humanized mice were engrafted daily with human erythrocyte suspensions from days -11 to day 6. […] On day 4, groups of n = 2 mice were treated with a single dose pantothenamides or chloroquine (50 mg/kg) by oral gavage. […] Serial dilutions were prepared in the same solvent to concentrations 50 times higher than the corresponding CAL and QC concentrations. The concentrations were calculated under consideration of purity and salt factor. The spiking of the CAL and QC sample were performed at room temperature.

Structure (SMILES): COc1ccc(C[C@H](N)C(=O)N[C@H]2[C@@H](O)[C@H](n3cnc4c(N(C)C)ncnc43)O[C@@H]2CO)cc1 [puromycin]
HepG2 viability assay, raw signal, MIN average [1]: 764

remaining at 0 h, 10 µM ([2]; hepatocytes, % Remaining): 100%
remaining at 3 h, 10 µM ([2]; hepatocytes, % Remaining): 98.8%
Structure (SMILES): CCCCNC(=O)NS(=O)(=O)c1ccc(C)cc1 [Tolbutamide]

Structure (SMILES): CCc1nc(N)nc(N)c1-c1ccc(Cl)cc1 [Pyrimethamine]
Average (log parasites +1) ([3]; 24 h): 4.95
Average (log parasites +1) ([3]; 48 h): 1.57
Average (log parasites +1) ([3]; 72h): 0.53
Average (log parasites +1) ([3]; 96h): 0.00
log (parasites +1) ([3]; 96h): 0
parasites ([3]; 96h): 0
Average (log parasites +1) ([3]; 120h): 0.00
log (parasites +1) ([3]; 120h): 0
parasites ([3]; 120h): 0

Structure (SMILES): C[C@@H](CNC(=O)[C@H](O)C(C)(C)CO)NC(=O)c1cc(F)c(F)cc1F [MMV693183-03]
% Bound Avg [4]: 41.3%
% Bound n=1 [4]: 42.38%
% Bound n=2 [4]: 40.31%
% Free n=1 [4]: 57.62%
% Free n=2 [4]: 59.69%
% Bound Avg [5]: 33.4%
% Bound n=1 [5]: 32.91%
% Bound n=2 [5]: 33.90%
% Free n=1 [5]: 67.09%
% Free n=2 [5]: 66.10%
% Bound Avg [6]: 39.9%
% Bound n=1 [6]: 39.84%
% Bound n=2 [6]: 39.89%
% Free n=1 [6]: 60.16%
% Free n=2 [6]: 60.11%
% Bound Avg [7]: 51.9%
% Bound n=1 [7]: 52.54%
% Bound n=2 [7]: 51.24%
% Free n=1 [7]: 47.46%
% Free n=2 [7]: 48.76%

Structure (SMILES): COc1cc(NC(C)CCCN)c2ncccc2c1 (stereo not drawn) [Primaquine]
Human RBCs ([8]; day 0, individual mice): 74.3% and 71.3% and 74.2% and 65%
Reticulocytes ([8]; day 0, individual mice): 0.41% and 0.56% and 0.49% and 0.54%
Human RBCs ([8]; day 4, individual mice): 54.6% and 45.9% and 58.7% and 49.1%
Reticulocytes ([8]; day 4, individual mice): 5.2% and 2.88% and 7.64% and 5.35%
Human RBCs ([8]; day 7, individual mice): 13.5% and 5.35% and 9.52% and 4.33%
Reticulocytes ([8]; day 7, individual mice): 4.47% and 5.69% and 5.07% and 8.31%
Hematocrit ([8]; individual mice): 31.37% and 28.81% and 29.69% and 29.51%
Spleen weight ([8]; individual mice): 1.219 % of body weight and 1.099 % of body weight and 1.08 % of body weight and 1.161 % of body weight

% Remaining ([9]; hepatocyte donor HC06, 3 h): 76.9%
% Remaining ([9]; hepatocyte donor HC06, 6 h): 57.5%
% Remaining ([9]; hepatocyte donor HC425, 6 h): 78.5%
% Remaining ([9]; hepatocyte donor HC425, 24 h): 39.0%
% Remaining ([9]; hepatocyte donor HC425, 48 h): 22.9%
% Remaining ([9]; hepatocyte donor HC425, 72 h): 4.8%
% Remaining ([9]; hepatocyte donor HC1010, 3 h): 50.4%
% Remaining ([9]; hepatocyte donor HC1010, 6 h): 26.9%
remaining at 0 h, 10 µM ([2]; % Remaining, 10 µM, hepatocyte donor HC02, 0 h, single replicates): 100%
remaining at 6 h, 10 µM ([2]; % Remaining, 10 µM, hepatocyte donor HC02, 6 h, single replicates): 2.2%
remaining at 0 h, 10 µM ([2]; % Remaining, 10 µM, hepatocyte donor HC06, 0 h, single replicates): 100%
remaining at 3 h, 10 µM ([2]; % Remaining, 10 µM, hepatocyte donor HC06, 3 h, single replicates): 80.9%
remaining at 6 h, 10 µM ([2]; % Remaining, 10 µM, hepatocyte donor HC06, 6 h, single replicates): 56.3%
remaining at 0 h, 10 µM ([2]; % Remaining, 10 µM, hepatocyte donor HC425, 0 h, single replicates): 100%
remaining at 6 h, 10 µM ([2]; % Remaining, 10 µM, hepatocyte donor HC425, 6 h, single replicates): 72.1%
remaining at 24 h, 10 µM ([2]; % Remaining, 10 µM, hepatocyte donor HC425, 24 h, single replicates): 33.1%
remaining at 0 h, 10 µM ([2]; % Remaining, 10 µM, hepatocyte donor HC1010, 0 h, single replicates): 100%
remaining at 3 h, 10 µM ([2]; % Remaining, 10 µM, hepatocyte donor HC1010, 3 h, single replicates): 46.7%
remaining at 6 h, 10 µM ([2]; % Remaining, 10 µM, hepatocyte donor HC1010, 6 h, single replicates): 29.5%
remaining at 24 h, 10 µM ([2]; % Remaining, 10 µM, hepatocyte donor HC1010, 24 h, single replicates): 2%
remaining at 48 h, 10 µM ([2]; cryopreserved human primary hepatocytes (relay assay), % Remaining, 10 µM, hepatocyte donor HC425, 48 h, single replicates): 25.4%
remaining at 72 h, 10 µM ([2]; cryopreserved human primary hepatocytes (relay assay), % Remaining, 10 µM, hepatocyte donor HC425, 72 h, single replicates): 8.2%
hepatocyte CLint ([2]; cryopreserved human primary hepatocytes (relay assay), CLint, donor HC02): 21.2 µL/min/1e6 cells
hepatocyte CLint ([2]; cryopreserved human primary hepatocytes (relay assay), CLint, donor HC06): 3.14 µL/min/1e6 cells
hepatocyte CLint at 10 µM ([2]; cryopreserved human primary hepatocytes (relay assay), CLint, donor HC425): 1.19 µL/min/1e6 cells
hepatocyte CLint ([2]; cryopreserved human primary hepatocytes (relay assay), CLint, donor HC1010): 6.28 µL/min/1e6 cells
Structure (SMILES): CCOc1ccc2ccc(=O)oc2c1 [7-Ethoxycoumarin]

Papp A→B at 9000 Sec, 2 µM ([10]; Caco-2, pH 7.4): 25 ×10⁻⁶ cm/s
Papp B→A at 9000 Sec, 2 µM ([10]; Caco-2, pH 7.4): 28.9 ×10⁻⁶ cm/s
efflux ratio at 9000 Sec, 2 µM ([10]; Caco-2, pH 7.4): 1.2
Papp at 9000 Sec, 2 µM ([10]; Caco-2, pH 7.4, Papp AVG): 25 ×10⁻⁶ cm/s
Papp at 9000 Sec, 2 µM ([10]; Caco-2, pH 7.4, Papp n=1, 2): 24.3 ×10⁻⁶ cm/s
Structure (SMILES): NC(=O)N1c2ccccc2C=Cc2ccccc21 [Carbamazepine]

Structure (SMILES): C[C@H]1[C@@H](O)O[C@@H]2O[C@@]3(C)CC[C@H]4[C@H](C)CC[C@@H]1[C@@]24OO3 [DHA, dihydroartemisinin]
AcAS band intensity normalized to DMSO at 37 °C ([11]; 37 °C): 142.951
AcAS band intensity normalized to DMSO at 37 °C ([11]; 42 °C): 180.287
AcAS band intensity normalized to DMSO at 37 °C ([11]; 47 °C): 80.1639
AcAS band intensity normalized to DMSO at 37 °C ([11]; 52 °C): 24.4159
Parasitemia, rings culture ([12]; Time (h) 0): 0.4
Parasitemia, rings culture ([12]; Time (h) 24): 0
Parasitemia, rings culture ([12]; Time (h) 48): 0
Parasitemia, schizonts culture ([12]; Time (h) 0): 0.2
Parasitemia, schizonts culture ([12]; Time (h) 24): 0
Parasitemia, schizonts culture ([12]; Time (h) 48): 0

Structure (SMILES): C[C@@H](CNC(=O)[C@H](O)C(C)(C)CO)NC(=O)c1cc(F)c(F)cc1F [MMV693183-06]
Calculated concentration (solubility sample) ([13]; FaSSIF): 9179.95 ppm and 9316.55 ppm
Calculated concentration (solubility sample) ([13]; FeSSIF): 9110.79 ppm and 8990.98 ppm
Calculated concentration (solubility sample) ([13]; PBS): 6813.58 ppm and 7461.45 ppm

Structure (SMILES): CCN(CC)CCCC(C)Nc1ccnc2cc(Cl)ccc12 (stereo not drawn) [CQ, chloroquine, reference compound]
Parasitemia ([14]; day 5 post infection, 50 mg/kg p.o. on day 4, per mouse, 50 mg/kg): 0.12 and 0.07
Parasitemia ([14]; day 6 post infection, per mouse): 0 and 0.01
Parasitemia ([14]; day 7 post infection, per mouse): 0

Source: publication PMC9021288 (Nature Communications, 2022)
